For assay [1], the target named is T1, chimeric Ig-EPOR protein (Homo sapiens, UniProt P19235).
T1 construct: a fusion protein having domains corresponding to murine IgG1 and the extracellular domain (ECD) of the human EPOR; made in house; secreted into the medium
The experiment in a line: phage ELISA, relative affinities of binding clones for Ig-EPOR. The settings on record: optical density per phage at 50% ERB1 maximum response × 1×10^8; ERB1 = standard. The method, then:
To better characterize the phage isolates having binding specificity for the EPOR, we compared the relative affinities of the binding clones presented in FIG. 4, using a phage ELISA procedure. Phage stocks of the binding clones were titered in triplicate to accurately determine the concentration of pfu/ml for each lysate. Different isolates were then assayed by ELISA using normalized phage concentrations so that all clones were tested using equivalent numbers of phage. Optical densities in the ELISA corresponding to the equivalent of a 50% maximum response in the ERB1 trial were next determined for each of the different phage isolates. […] The normalized relative affinity (“Rel. Aff.”) for each clone is shown to the right of the clone's peptide sequence in FIG. 4.
(In general: In an ELISA, binding on a coated surface is turned into a signal by an enzyme label.)

The target of assay [2] is T2, interleukin-6 (IL-6R) (Homo sapiens, UniProt P08887).
T2 sequence (P08887 20-365 limits assumed): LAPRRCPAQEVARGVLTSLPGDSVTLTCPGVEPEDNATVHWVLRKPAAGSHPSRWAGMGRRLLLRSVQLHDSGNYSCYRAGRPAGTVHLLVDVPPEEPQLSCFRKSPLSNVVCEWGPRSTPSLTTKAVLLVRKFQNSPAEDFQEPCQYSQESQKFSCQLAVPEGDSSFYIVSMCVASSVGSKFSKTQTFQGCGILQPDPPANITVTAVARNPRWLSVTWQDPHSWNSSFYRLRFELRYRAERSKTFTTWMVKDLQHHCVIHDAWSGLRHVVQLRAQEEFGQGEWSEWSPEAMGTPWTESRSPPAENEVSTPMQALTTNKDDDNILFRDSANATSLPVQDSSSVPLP
The experiment in a line: phage binding control, IL-6R extracellular domain. Conditions: results not shown.

The target in assay [3] is T3, chimeric Ig-EPOR probe (Homo sapiens, UniProt P19235).
T3 construct: a fusion protein having domains corresponding to murine IgG1 and the extracellular domain (ECD) of the human EPOR; made in house; secreted into the medium
The experiment in a line: EPOR-specific magnetic bead phage ELISA. It is filed as binding. The settings on record: anti-M13 detection. On the procedure: A magnetic bead ELISA protocol was used to verify that the ERB1 phage clone bound to the chimeric Ig-EPOR probe by specific interactions. The chimeric Ig-EPOR probe was bound to magnetic beads displaying rat anti-murine IgG1, substantially as described above. Samples (100 μl) of 1:2 serial dilutions (PBS and 1% BSA) of a phage lysate were combined with the beads, and the phage allowed to bind the immobilized probe for 1 hr at room temperature. Phage used in this procedure were ERB1 and two negative control phage: HPKF, a clone that binds specifically to a commercially obtained anti-IL-8 mAb, and IL6-B26, a clone that binds specifically to a human IL-6 receptor. After removing unbound phage by washing four times with 200 μl aliquots of TBST (25 mM TrisHCl, pH 7.2, 0.15 M NaCl, 0.1% TWEEN® 20), an HRP-conjugated anti-M13 detection antibody (Pharmacia) diluted 1:5,000 in PBS was added. After incubating (1 hr at room temperature), excess detection antibody was removed by washing and 10 μl for each of the washed bead complexes was transferred to microtiter wells (FALCON® 3912, MICROTEST III, Beckton Dickinson, Oxnard, Calif.) that served as reaction vessels. Each well was developed using the TMB peroxidase substrate and the extent of the peroxidase reaction measured spectrophotometrically, as described in Example 4.

Assay [4] relates to extracellular domains of the receptors for tumor necrosis factor (TNFR). The assay can be described thus: phage binding control, TNFR extracellular domain. The settings on record: results not shown.
The test system of assay [5] is TF-1 cells. The assay can be described thus: TF-1 cell proliferation assay. The class given is cell-based, human. On the procedure:
To evaluate the biological activities of two representative synthetic peptides containing the 12-mer consensus sequence, peptides ERB1-7 and ERB1-8 were tested for their ability to stimulate proliferation of the EPO-responsive cell line (TF-1).
TF-1 cells were propagated in RPMI 1640 containing 10% BCS and 5 ng/ml GM-CSF. […] Also tested as a negative control was an IL-6 peptide having the sequence […] (SEQ ID NO:87). Peptide concentrations were tested over a 1,000-fold concentration range of 0.02 to 20 μM.

Assay [6] in a line: Biacore analysis of binding kinetics of Ig-EPOR. Conditions: known affinity values 0.1-1.1×10^−9 k (Karlsson et al.). From the text: Contaminating bands and degradation products on the gel were minimal. […] The Ig-EPOR protein easily was recoverable in microgram amounts using the procedures described above.
In assay [7] the target is T4, chimeric Ig-EPOR protein (human; murine, UniProt P19235 25-250).
T4 construct: extracellular domain; Secreted from COS-7 cells transfected with pcDNA3-IgG1-EPOR; major species about 59 kDa; also called IgG-EPOR; chimeric receptor; not shown: hinge region, CH2 and CH3 domains of the murine IgG1 heavy chain
T4 sequence (looked up): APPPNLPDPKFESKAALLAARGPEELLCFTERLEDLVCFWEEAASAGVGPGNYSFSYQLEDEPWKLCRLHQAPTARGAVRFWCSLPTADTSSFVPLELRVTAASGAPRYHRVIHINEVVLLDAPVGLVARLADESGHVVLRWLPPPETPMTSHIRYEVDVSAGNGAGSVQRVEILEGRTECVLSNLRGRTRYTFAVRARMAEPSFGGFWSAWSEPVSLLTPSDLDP
The assay can be described thus: peptide inhibition ELISA (Ig-EPOR binding to EPO-coated plates). From the text:
(§1) Thus, the consensus 12-mer peptide sequence given by SEQ ID NO:12 likely was necessary but not sufficient to create synthetic peptides having high affinity for the EPOR.

Assay [8] deals with T4, chimeric Ig-EPOR protein. The assay can be described thus: control in the peptide inhibition ELISA (FIGS. 6 and 7). From the text:
Synthetic peptides having the sequences […]-[…] (SEQ ID NO:81), and […]-[…] (SEQ ID NO:82) were synthesized in the cyclic (disulfide-bonded) form using standard procedures (Peninsula Laboratories, Belmont, Calif.).

Assay [9] addresses T4, chimeric Ig-EPOR protein. The experiment in a line: peptide inhibition ELISA: Ig-EPOR binding to EPO-coated plates.
From the text: as §1

Positions of bridges follow the written chain, without caps; N, C: chain ends. No end group written: not given here.

T1 sequence (P01868 98-324 partner limits assumed, one chain of several): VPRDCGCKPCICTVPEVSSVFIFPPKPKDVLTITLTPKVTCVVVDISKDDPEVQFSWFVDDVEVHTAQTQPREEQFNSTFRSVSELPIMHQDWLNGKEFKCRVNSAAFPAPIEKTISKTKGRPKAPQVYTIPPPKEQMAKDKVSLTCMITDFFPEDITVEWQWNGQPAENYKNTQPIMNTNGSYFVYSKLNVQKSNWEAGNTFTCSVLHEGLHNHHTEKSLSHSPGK
T3 sequence (P01868 98-324 partner limits assumed, one chain of several): as above

For “DFDVCRRGWVGHCKDWLSDEYASNPSYPVPHSYYLNPP [ERB1]”, the “normalized relative affinity (Rel. Aff.)” value in [1] came out at 1.0. The “binding to extracellular domain of IL-6R” value in assay [2] is “did not bind”. In [3], the “binding to the Ig-EPOR probe” value is on record as “bound specifically”. In addition, in assay [4], the “binding to extracellular domain of TNFR” value is “did not bind”.
Consider “GGAFCEAVGCGPDRNFYGG [IL-6 peptide, reference compound]”, for which the “stimulation of TF-1 cell proliferation” value in assay [5] (any tested concentration up to 20 μM) is recorded as “did not stimulate TF-1 cell proliferation”.
In the case of “Ig-EPOR: chimeric protein: ligand binding domain of human EPOR and hinge, CH2 and CH3 domains of murine IgG1”, in assay [6], the binding kinetics entry was “in good agreement with known affinity values”.
For the molecule “EPO: recombinant human EPO (R & D Systems)”, the “half maximal response (ED50), TF-1 proliferation” value in assay [5] (three days culture) is 0.05 to 0.1 unit/ml.

B1: 14-mer peptide 7N-4 (peptide)
peptide: CRRGWVGQCKAWFN
modifications: not fully specified (bridges); also: synthesized as (cyclic form there)
notes: N-terminal truncation of ERB1-7
With B1, the binding result in assay [7] is given as “no binding”.

B2: IL-6 peptide (peptide)
peptide: GGAFCEAVGCGPDRNFYGG
notes: also called irrelevant IL-6 peptide
On to B2, for which the binding result in assay [8] was “no binding”.

B3: 17-mer peptide 7N-1 (peptide)
peptide: REGCRRGWVGQCKAWFN
modifications: disulfide 4-12 (inferred)
notes: as for B1
The IC50 is the concentration that inhibits the measured activity by half. Read a low IC50 as inhibition by little substance. In assay [9], B3 returned an IC50 of 0.091 µM.

B4: 16-mer peptide 7N-2 (peptide)
peptide: EGCRRGWVGQCKAWFN
modifications: disulfide 3-11 (inferred)
notes: as for B1
For B4, in assay [9], the IC50 was ~3.7 µM.

B5: 15-mer peptide 7N-3 (peptide)
peptide: GCRRGWVGQCKAWFN
modifications: not fully specified (bridges); also: synthesized as (cyclic form there)
notes: as for B1
With B5, in [7], the binding result is reported as “no binding”.

(Values after patent US6642353B1, “Peptide ligands for the erythropoietin receptor” (Chugai Seiyaku Kabushiki Kaisha, priority 2000, dated 2003).)
